How the values were obtained:
Tubulin (Homo sapiens) [1] = molecular target: T1, Tubulin (Homo sapiens) (UniProt P68371+Q9H4B7+P0DPH7+P68366+Q13509+Q71U36+P04350+Q3ZCM7+P07437+P68363+Q9BQE3+Q6PEY2+Q13885+Q9BVA1+Q9BUF5); test: Binding affinity to microtubules, activity expressed as ID50 of compound/ID50 of paclitaxel; type: protein-complex assay
Tubulin (Homo sapiens) [2] = molecular target: T1, Tubulin (Homo sapiens); test: Binding affinity to microtubules, activity expressed as log 1/ID50 of compound/ID50 of paclitaxel; type: protein-complex assay

Compound | ID50 ratio (Tubulin (Homo sapiens) [1]) | Log 1/ratio (Tubulin (Homo sapiens) [2])
CC(=O)O[C@@]12CO[C@@H]1C[C@H](O)[C@@]1(C)C(=O)[C@H](O)C3=C(C)[C@@H](OC(=O)[C@H](O)Cc4ccccc4)C[C@@](O)([C@@H](OC(=O)c4ccccc4)[C@H]21)C3(C)C | 4.5 | -0.653
CC(=O)O[C@H]1C(=O)[C@]2(C)[C@@H](OC(=O)c3ccccc3)C[C@H]3OC[C@@]3(OC(C)=O)[C@H]2[C@H](OC(=O)c2ccccc2)[C@]2(O)C[C@H](OC(=O)[C@H](O)[C@@H](NC(=O)c3ccccc3)c3ccccc3)C(C)=C1C2(C)C | 1.7 | -0.23
CC(=O)O[C@@]12CO[C@@H]1C[C@H](O)[C@@]1(C)C(=O)[C@H](O)C3=C(C)[C@@H](OC(=O)[C@H](NC(=O)c4ccccc4)[C@@H](O)c4ccccc4)C[C@@](O)([C@@H](OC(=O)c4ccccc4)[C@H]21)C3(C)C | 10 | -1
CC(=O)O[C@H]1C(=O)[C@@]2(C)[C@H]([C@H](OC(=O)c3ccccc3)[C@]3(O)C[C@H](OC(=O)[C@H](O)[C@@H](NC(=O)c4ccc(C)cc4)c4ccccc4)C(C)=C1C3(C)C)[C@]1(OC(C)=O)CO[C@@H]1C[C@@H]2O | 1.6 | -0.204
CC(=O)O[C@H]1C(=O)[C@@]2(C)[C@H]([C@H](OC(=O)c3ccccc3)[C@]3(O)C[C@H](OC(=O)[C@H](O)[C@@H](NC(=O)c4ccccc4)c4ccc(F)cc4)C(C)=C1C3(C)C)[C@]1(OC(C)=O)CO[C@@H]1C[C@@H]2O | 1.1 | -0.0414
COc1ccc([C@H](NC(=O)c2ccccc2)[C@@H](O)C(=O)O[C@H]2C[C@@]3(O)[C@@H](OC(=O)c4ccccc4)[C@@H]4[C@]5(OC(C)=O)CO[C@@H]5C[C@H](O)[C@@]4(C)C(=O)[C@H](OC(C)=O)C(=C2C)C3(C)C)cc1 | 0.5 | 0.301
CC(=O)O[C@@]12CO[C@@H]1C[C@H](O)[C@@]1(C)C(=O)[C@H](O)C3=C(C)[C@@H](OC(=O)[C@@H](O)Cc4ccccc4)C[C@@](O)([C@@H](OC(=O)c4ccccc4)[C@H]21)C3(C)C | 3.5 | -0.544
CC(=O)O[C@@]12CO[C@@H]1C[C@H](O)[C@@]1(C)C(=O)[C@H](O)C3=C(C)[C@@H](OC(=O)CCc4ccccc4)C[C@@](O)([C@@H](OC(=O)c4ccccc4)[C@H]21)C3(C)C | 17 | -1.23
CC(=O)O[C@H]1C(=O)[C@@]2(C)[C@H]([C@H](OC(=O)c3ccccc3)[C@]3(O)C[C@H](OC(=O)[C@H](O)[C@@H](NC(=O)c4ccc(Cl)cc4)c4ccccc4)C(C)=C1C3(C)C)[C@]1(OC(C)=O)CO[C@@H]1C[C@@H]2O | 2.4 | -0.38
CC(=O)O[C@H]1C(=O)[C@@]2(C)[C@H]([C@H](OC(=O)c3ccccc3)[C@]3(O)C[C@H](OC(=O)[C@H](O)[C@@H](NC(=O)C(C)=O)c4ccccc4)C(C)=C1C3(C)C)[C@]1(OC(C)=O)CO[C@@H]1C[C@@H]2O | 3.5 | -0.544
CC(=O)O[C@@]12CO[C@@H]1C[C@H](O)[C@@]1(C)C(=O)[C@H](O)C3=C(C)[C@@H](OC(=O)C[C@@H](O)[C@@H](NC(=O)c4ccccc4)c4ccccc4)C[C@@](O)([C@@H](OC(=O)c4ccccc4)[C@H]21)C3(C)C | > 27 | 

Now from value to molecule:

ID50 ratio (Tubulin (Homo sapiens) [1]) | Log 1/ratio (Tubulin (Homo sapiens) [2]) | Compound
4.4 | -0.644 | CC(=O)O[C@H]1C(=O)[C@@]2(C)[C@H]([C@H](OC(=O)c3ccccc3)[C@]3(O)C[C@H](OC(=O)[C@H](O)[C@@H](NC(=O)c4ccccc4)c4cccc(Cl)c4)C(C)=C1C3(C)C)[C@]1(OC(C)=O)CO[C@@H]1C[C@@H]2O
1 | 0 | CC(=O)O[C@@]12CO[C@@H]1C[C@H](OC(=O)[C@H](N)Cc1ccccc1)[C@@]1(C)C(=O)[C@H](O)C3=C(C)[C@@H](OC(=O)[C@H](O)[C@@H](NC(=O)OC(C)(C)C)c4ccccc4)C[C@@](O)([C@@H](OC(=O)c4ccccc4)[C@H]21)C3(C)C
7.1 | -0.851 | CC(=O)O[C@H]1C(=O)[C@@]2(C)[C@H]([C@H](OC(=O)c3ccccc3)[C@]3(O)C[C@H](OC(=O)[C@H](O)[C@@H](NC(=O)c4ccccc4)c4ccc5ccccc5c4)C(C)=C1C3(C)C)[C@]1(OC(C)=O)CO[C@@H]1C[C@@H]2O
160 | -2.2 | CC(=O)O[C@@]12CO[C@@H]1C[C@H](O)[C@@]1(C)C(=O)[C@H](O)C3=C(C)[C@@H](OC(=O)[C@@H](NC(=O)OC(C)(C)C)[C@H](O)c4ccccc4)C[C@@](O)([C@@H](OC(=O)c4ccccc4)[C@H]21)C3(C)C
0.5 | 0.301 | CC(=O)O[C@@]12CO[C@@H]1C[C@H](O)[C@@]1(C)C(=O)[C@H](O)C3=C(C)[C@@H](OC(=O)[C@H](O)[C@@H](NC(=O)OC(C)(C)C)c4ccccc4)C[C@@](O)([C@@H](OC(=O)c4ccccc4)[C@H]21)C3(C)C (stereo in doubt; 39)
1 | 0 | CC(=O)O[C@@]12CO[C@@H]1C[C@H](O)[C@@]1(C)C(=O)[C@H](O)C3=C(C)[C@@H](OC(=O)[C@H](O)[C@@H](NC(=O)CCCC(=O)O)c4ccccc4)C[C@@](O)([C@@H](OC(=O)c4ccccc4)[C@H]21)C3(C)C
0.8 | 0.0969 | CC(=O)O[C@H]1C(=O)[C@@]2(C)[C@H]([C@H](OC(=O)c3ccccc3)[C@]3(O)C[C@H](OC(=O)[C@H](O)[C@@H](NC(=O)c4ccccc4)c4ccc(O)cc4)C(C)=C1C3(C)C)[C@]1(OC(C)=O)CO[C@@H]1C[C@@H]2O
0.8 | 0.0969 | CCCCOC(=O)N[C@@H](c1ccccc1)[C@@H](O)C(=O)O[C@H]1C[C@@]2(O)[C@@H](OC(=O)c3ccccc3)[C@@H]3[C@]4(OC(C)=O)CO[C@@H]4C[C@H](O)[C@@]3(C)C(=O)[C@H](OC(C)=O)C(=C1C)C2(C)C
4.1 |  | CC(=O)O[C@H]1C(=O)[C@@]2(C)[C@H]([C@H](OC(=O)c3ccccc3)[C@]3(O)C[C@H](OC(=O)C[C@@H](NC(=O)OC(C)(C)C)c4ccccc4)C(C)=C1C3(C)C)[C@]1(OC(C)=O)CO[C@@H]1C[C@@H]2O
6.4 |  | CC(=O)O[C@H]1C(=O)[C@@]2(C)[C@H]([C@H](OC(=O)c3ccccc3)[C@]3(O)C[C@H](OC(=O)[C@H](C)O)C(C)=C1C3(C)C)[C@]1(OC(C)=O)CO[C@@H]1C[C@@H]2O
5.6 |  | CC(=O)O[C@H]1C(=O)[C@@]2(C)[C@H]([C@H](OC(=O)c3ccccc3)[C@]3(O)C[C@H](OC(=O)[C@@H](C)O)C(C)=C1C3(C)C)[C@]1(OC(C)=O)CO[C@@H]1C[C@@H]2O
2 |  | CC(=O)O[C@H]1C(=O)[C@]2(C)[C@@H](OC(C)=O)C[C@H]3OC[C@@]3(OC(C)=O)[C@H]2[C@H](OC(=O)c2ccccc2)[C@]2(O)C[C@H](OC(=O)[C@H](O)[C@@H](NC(=O)c3ccccc3)c3ccccc3)C(C)=C1C2(C)C
1.7 |  | CC(=O)O[C@H]1C(=O)[C@@]2(C)[C@H]([C@H](OC(=O)c3ccccc3)[C@]3(O)C[C@H](OC(=O)[C@H](O)[C@@H](NC(=O)OC(C)(C)C)c4ccco4)C(C)=C1C3(C)C)[C@]1(OC(C)=O)CO[C@@H]1C[C@@H]2O
2 |  | CC(=O)O[C@@]12CO[C@@H]1C[C@H](OC(=O)CCCC(=O)O)[C@@]1(C)C(=O)[C@H](OC(=O)CCCC(=O)O)C3=C(C)[C@@H](OC(=O)[C@H](O)[C@@H](NC(=O)OC(C)(C)C)c4ccccc4)C[C@@](O)([C@@H](OC(=O)c4ccccc4)[C@H]21)C3(C)C
0.4 |  | CC(=O)O[C@H]1C(=O)[C@@]2(C)[C@H]([C@H](OC(=O)c3ccccc3)[C@]3(O)C[C@H](OC(=O)[C@H](O)[C@@H](NC(=O)c4ccccc4)c4ccncc4)C(C)=C1C3(C)C)[C@]1(OC(C)=O)CO[C@@H]1C[C@@H]2O

Source: ChEMBL document CHEMBL1127973, “A comparative molecular field analysis derived model of the binding of taxol analogues to microtubules” (Bioorg Med Chem Lett, 1994)
